Data reported in publication PMC6383986, “Fragment-Based Covalent Ligand Screening Enables Rapid Discovery of Inhibitors for the RBR E3 Ubiquitin Ligase HOIP” (Journal of the American Chemical Society, 2019).
Entries after “also recorded” stand apart in the source; their conditions may differ.

Legend:
[1] = biological target: T1, ALDH6A1 (Homo sapiens, UniProt Q02252); assay: ABPP quantitative MS, HEK293T; assay type: cell-based; settings: 30 μM (11a) 7 h vs DMSO, then 3 μM (15) 2 h
T1 construct: endogenous in cells; host or cells: HEK293T (A21); MCF7 (A27)
Procedure: (§1) control and cells treated with control compounds (11i) and (17) at 30 µM). HOIP RBR wild type […]
(§2) nm, indicating low to no labelling by (11a), and a dominant signal from the 800 channel (green).
(§3) C = HOIP RBR control (0.5 µg).
(§4) 5.2 Activity-based protein profiling – Enrichment and LC-MS
(§5) Cell culture and transfection, compound treatment, ha rvest and lysis
(§6) HEK293T cells were cultured and transfected as describ ed in section 4.8 above. MCF7 cells were seeded in 100 mm Petri dishes at 6 × 10^5 cells/dish and cultured overnight at 37 °C as described in section 4.8 above. Both cell types were treated with inhibitor (11a) (30 µM final concentration) or DMSO as described above, incubating for 7 h at 37 °C, followed by addition of clickable probe (15) (3 µM final concentration) and incubation for an additional 2 h. The cells were then harvested and lysed (50 mM Tris-HCl, pH 7.5, 1.5 mM MgCl2, 150 mM NaCl, 5% glycerol, 0.8% v/v IGEPAL-CA630, 25 mM NaF, 1 mM Na3VO4, complete protease inhibitor), and the protein concentration was determined by the BCA assay as described in section 4.7 above.
(§7) Enrichment of TCO-labelled proteins
(§8) Similar to a previously described protocol,22 tetrazine beads were generated by incubating high capacity neutravidin beads (500 µL; Thermo Scientific) with 0.1 µmol tetrazine-PEG4-biotin (Jena Bioscience) in PBS buffer over night at 4 °C, followed by blocking with 5 µL 100 mM biotin in DMSO for 30 minutes at 4 °C. The beads were washed 3× with buffer (50 mM Tris-HCl pH 7.4, 5% glycerol, 1.5 mM MgCl2, 150 mM NaCl, 1 mM Na3VO3, 5 mM NaF) supplemented with 0.4% IGEPAL CA-630 and adjusted to a 5% v/v slurry.
(§9) Lysate with a protein concentration of approx. 2 mg/mL (500 µL) were added to the TCO beads (35 µL) on a 96-well filter plate (Porvair, Dunn #240002) and incubated at 4°C for 2 h. After incubation, beads were washed using a vacuum manifold with 5 mL wash buffer 1 (WB1) (50 mM […]
(§10) (50 mM HEPES pH 8.5, 2 M urea), and 5 mL WB4 (50 mM HEPES pH 8.5). Proteins were then eluted by on bead digestion: 60 µL elution buffer (50 mM HEPES pH 8.5, 5 mM Tris-(2-carboxyethyl)phosphine, 15 mM chloroacetamide, 0.004 µg LysC/ µL (Wako chemicals), 0.004 µg trypsin/µL (Promega)) were added to the washed beads and incubated over night at room temperature. Eluates were collected by centrifugation, beads incubated with an additional 60 µL WB4, eluted and both eluates were combined and lyophilized. […]
(§11) proportional to the number of ions; this measure is referred to as ion area.24 Spectra matching to peptides were filtered according to the following criteria: mascot ion score >15, signal-to-background of the precursor ion >4, and signal -to-interference >0.5. Fold-changes were corrected for isotope purity and adjusted for interference caused by co-eluting nearly isobaric peaks.25 Protein quantification was derived from individual spectra matching to distinct peptides by using a sum-based bootstrap algorithm; 95% confidence intervals were calculated for all protein fold-changes that were quantified with more than three spectra.23 Relative protein abundance s were generated on the basis of MS1 abundances .26 Briefly, XIC peaks were matched to identified peptides. […] These values were then summed, and the mean was calculated.
(§12) In cases where fewer than 3 sequences were associated, the mean was calculated using XIC intensities from either one or two sequences.
(§13) Proteins were filtered for >1 quantified spectra matches (qusm). Residual binding was calculated […]

[2] = biological target: T2, NUDT8 (Homo sapiens, UniProt Q8WV74); assay: ABPP quantitative MS, HEK293T; assay type: cell-based; settings: 30 μM (11a) 7 h vs DMSO, then 3 μM (15) 2 h
T2 construct: endogenous in cells; host or cells: HEK293T
Procedure: as §1, §2, §3, §4, §5, §6, §7, §8, §9, §10, §11, §12, §13

[3] = biological target: T3, TRMT61A (Homo sapiens, UniProt Q96FX7); assay: ABPP quantitative MS, HEK293T; assay type: cell-based; settings: 30 μM (11a) 7 h vs DMSO, then 3 μM (15) 2 h
T3 construct: endogenous in cells; host or cells: HEK293T
Procedure: as §1, §2, §3, §4, §5, §6, §7, §8, §9, §10, §11, §12, §13

[4] = biological target: T4, RNF31 (E3 ubiquitin-protein ligase RNF31) (Homo sapiens, UniProt Q96EP0); assay: ABPP quantitative MS, HEK293T; assay type: cell-based; settings: 30 μM (11a) 7 h vs DMSO, then 3 μM (15) 2 h
T4 construct: expressed in transfected cells; host or cells: HEK293T, transient, modified pcDNA3.1(+)
Procedure: as §1, §2, §3, §4, §5, §6, §7, §8, §9, §10, §11, §12, §13

[5] = biological target: T5, IRAK4 (Interleukin-1 receptor-associated kinase 4) (Homo sapiens, UniProt Q9NWZ3); assay: ABPP quantitative MS, HEK293T; assay type: cell-based; settings: 30 μM (11a) 7 h vs DMSO, then 3 μM (15) 2 h
T5 construct: endogenous in cells; host or cells: HEK293T (transfected with 3×FLAG HOIP RBR only)
Procedure: as §1, §2, §3, §4, §5, §6, §7, §8, §9, §10, §11, §12, §13

[6] = biological target: T6, HOIP RBR domain (Homo sapiens, UniProt Q96EP0); assay: In vitro polyubiquitination assay; assay type: biochemical; settings: HOIP RBR preincubated with compound (200 μM) overnight; E2 UbcH7 or UbcH5c; vs DMSO
T6 construct: made in house; host or cells: E. coli BL21-GOLD(DE3)
T6 sequence (Q96EP0 697-1072): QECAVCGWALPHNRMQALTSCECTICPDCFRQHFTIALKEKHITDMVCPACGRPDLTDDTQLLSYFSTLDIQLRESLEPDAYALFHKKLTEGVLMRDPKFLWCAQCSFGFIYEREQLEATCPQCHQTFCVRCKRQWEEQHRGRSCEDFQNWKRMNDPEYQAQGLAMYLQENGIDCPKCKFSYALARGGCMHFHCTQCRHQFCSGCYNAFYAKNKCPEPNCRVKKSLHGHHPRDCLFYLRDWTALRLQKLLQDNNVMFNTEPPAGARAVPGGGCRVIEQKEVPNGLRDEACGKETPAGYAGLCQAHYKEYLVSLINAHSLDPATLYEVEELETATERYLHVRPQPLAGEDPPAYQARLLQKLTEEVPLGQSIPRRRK
Procedure: 4.3 Polyubiquitination assay
The ubiquitination assay was essentially carried out as previously described.12 The HOIP RBR domain was pre-incubated with compounds (5) or (6), or DMSO in 50 mM HEPES, 150 mM NaCl, pH 7.5 buffer at 23 °C with gentle shaking for overnight (20-24 h). E1, E2 (UbcH7 or UbcH5c), ubiquitin, and MgCl2 were added to each vial, and aliquots of 15 µL were withdrawn to mark time zero. ATP was then added and aliquots of 15 µL were withdrawn after 5, 15, 30, and 60 min incubation. Final concentrations: E1 (1 µM), E2 (5 µM), E3 (5 µM), compounds (200 µM), DMSO (1%), ubiquitin (40 µM), MgCl2 (20 mM), ATP (10 mM); reaction volume 100 µL. The aliquots were analyzed by SDS PAGE (Figure 4A and Supplementary Figure S9) as described below (section

T5 sequence (Q9NWZ3 whole entry): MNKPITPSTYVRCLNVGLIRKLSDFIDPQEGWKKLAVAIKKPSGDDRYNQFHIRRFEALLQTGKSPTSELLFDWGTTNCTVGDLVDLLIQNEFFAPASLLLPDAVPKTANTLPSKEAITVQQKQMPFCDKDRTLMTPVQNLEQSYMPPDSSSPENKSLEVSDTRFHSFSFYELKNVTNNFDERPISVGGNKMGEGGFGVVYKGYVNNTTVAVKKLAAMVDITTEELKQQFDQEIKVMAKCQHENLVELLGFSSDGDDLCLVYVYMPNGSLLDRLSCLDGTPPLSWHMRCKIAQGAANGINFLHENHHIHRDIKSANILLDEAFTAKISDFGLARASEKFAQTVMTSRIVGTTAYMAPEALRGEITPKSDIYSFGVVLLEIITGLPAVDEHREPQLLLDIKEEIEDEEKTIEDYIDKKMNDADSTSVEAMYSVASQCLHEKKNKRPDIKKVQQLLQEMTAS
T3 sequence (Q96FX7 whole entry): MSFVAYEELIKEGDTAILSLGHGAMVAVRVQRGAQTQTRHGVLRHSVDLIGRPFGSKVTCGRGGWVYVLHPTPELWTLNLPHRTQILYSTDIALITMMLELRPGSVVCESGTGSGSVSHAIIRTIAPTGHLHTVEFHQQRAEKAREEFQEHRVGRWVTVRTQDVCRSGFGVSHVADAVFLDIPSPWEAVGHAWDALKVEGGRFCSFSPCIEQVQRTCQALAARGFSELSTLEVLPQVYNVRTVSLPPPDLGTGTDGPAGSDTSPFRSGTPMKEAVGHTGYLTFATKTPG
T1 sequence (Q02252 34-535): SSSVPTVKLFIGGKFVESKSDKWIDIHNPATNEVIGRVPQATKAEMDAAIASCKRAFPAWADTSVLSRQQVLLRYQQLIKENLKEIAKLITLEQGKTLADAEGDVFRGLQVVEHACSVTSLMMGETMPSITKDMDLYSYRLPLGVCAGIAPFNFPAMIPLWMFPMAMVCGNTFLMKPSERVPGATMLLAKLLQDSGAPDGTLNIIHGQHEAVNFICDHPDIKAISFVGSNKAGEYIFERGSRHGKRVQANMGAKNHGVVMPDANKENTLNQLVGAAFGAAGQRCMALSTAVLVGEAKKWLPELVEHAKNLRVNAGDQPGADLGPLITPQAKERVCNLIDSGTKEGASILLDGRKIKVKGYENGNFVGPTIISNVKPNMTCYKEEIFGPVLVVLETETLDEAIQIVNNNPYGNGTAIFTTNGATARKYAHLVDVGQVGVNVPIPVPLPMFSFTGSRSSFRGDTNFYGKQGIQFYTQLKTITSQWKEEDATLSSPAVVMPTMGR
T2 sequence (Q8WV74 whole entry): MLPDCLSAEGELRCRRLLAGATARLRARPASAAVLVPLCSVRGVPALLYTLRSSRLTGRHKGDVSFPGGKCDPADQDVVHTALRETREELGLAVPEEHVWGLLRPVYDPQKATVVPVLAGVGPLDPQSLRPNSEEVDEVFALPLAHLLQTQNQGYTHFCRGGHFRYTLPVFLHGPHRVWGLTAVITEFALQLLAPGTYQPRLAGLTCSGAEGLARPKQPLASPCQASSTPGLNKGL

| SMILES | ratio: mean ratio between control and competition samples, ALDH6A1 [1] [log2] | ratio: mean ratio between control and competition samples, NUDT8 [2] [log2] | ratio: mean ratio between control and competition samples, TRMT61A [3] [log2] | ratio: mean ratio between control and competition samples, RNF31 [4] [log2] | ratio: mean ratio between control and competition samples, IRAK4 [5] [log2] | polyubiquitin chain formation [6] |
| --- | --- | --- | --- | --- | --- | --- |
| COC(=O)/C=C/CNC(=O)c1cc2c([nH]c1=O)CCCC2 [Compound 11a] | -1.278 | -1.172 | -1.293 | -2.293 | -1.675 |  |
| COC(=O)/C=C/CNC(=O)c1cc2c([nH]c1=O)CCC2 [Compound 5] |  |  |  |  |  | fully abolished chain formation; also recorded: complete inhibition of polyubiquitin chain formation |
